Source: patent US7868172B2, “2-(hetero)-aryl substituted tetrahydroquinoline derivatives” (Merck Patent GmbH, priority 2003, dated 2011)
“And” between values parts separate entries of the source, which are not always exact repeats. Equal values may be shown once.

What was measured:
HCT116 cells = test: Cell cycle analysis, propidium iodide FACS (DNA content); type: cell-based; conditions: for percentage of cells in the G0/G1 phase (G1) / percentage of cells in the G2/M phase / percentage of cells in the S phase: HCT116, 24 hrs
Experimental: Monasterol and pentamidine in individual experiments: • HCT116 cells were treated with the given concentrations of the compounds for 24 hrs, processed for the propidium iodide analysis with a BD-FACS scan in order to determine the DNA content of the treated cell populations. The percentage of cells in the G0/G1 phase (unreplicated DNA), S phase (DNA replication phase) and G2/M phase (duplicated DNA before mitosis) is shown. 10,000 events were counted for each concentration. Striking changes in the G2/M enrichment have been highlighted.

[1] = system: colon carcinoma cell line HCT116; test: Assay II: combination cell proliferation test, Crystal Violet staining; type: cell-based; conditions: for -fold inhibition of proliferation / OD550 nm background corrected / % of control: 48 hrs
Experimental: The combination of the antiprotozoic pentamidine and the inhibitors of kinesin ATPase Eg5/KSP results in increased inhibitory effects in cell proliferation tests with the colon carcinoma cell line HCT116.
10^3 to 10^4 cells of a defined cell line (HCT116, Colo 205, MDA-MB 231, etc.) are sown into each well of a 96-well microtitre plate and cultivated overnight under standard conditions. For the substances of the combination to be tested, 10-50 mM stock solutions in DMSO were prepared. Dilution series (generally 3-fold dilution steps) of the individual substances were combined with one another in the form of a pipetting scheme (see scheme below), while maintaining a DMSO final concentration of 0.5% (v/v). Next morning, the substance mixtures were added to the cells, which were incubated under culture conditions for a further 48 hours. At the end of the cultivation, Crystal Violet staining of the cells was carried out. After extraction of the Crystal Violet from the fixed cells, the absorption at 550 nm was measured spectrophotometrically. It can be used as a quantitative measure of the adherent cells present.
HCT116 cells were incubated overnight at 37° C. in 96-well plates at a density of 2500 or 5000 cells/well. On the following day, a concentration matrix of pentamidine and the compounds indicated was added, and the cells were incubated for a further 48 hrs. The cells were then stained with Crystal Violet, and the absorption was measured after extraction of the dye. The absorption value reflects the number of cells in the well.
Results: Upper matrix: OD550 nm background corrected Central matrix: % of control (the 100% value stands for vehicle-treated cells minus background signal) Lower field: -fold inhibition values (i.e. the 100%/x % value stands for a-fold inhibition of proliferation).

[2] = monastrol 6.125 μM, pentamidine 0 μM
[3] = monastrol 12.5 μM, pentamidine 0 μM
[4] = monastrol 25 μM, pentamidine 0 μM
[5] = monastrol 50 μM, pentamidine 0 μM

CCOC(=O)C1=C(C)NC(=S)NC1c1cccc(O)c1 (stereo not drawn) [Monastrol]
percentage of cells in the G0/G1 phase (G1) (HCT116 cells; 0.08 μM): 35% | percentage of cells in the G2/M phase (HCT116 cells; 0.08 μM): 25% | percentage of cells in the S phase (HCT116 cells; 0.08 μM): 39% | percentage of cells in the G0/G1 phase (G1) (HCT116 cells; 0.4 μM): 34% | percentage of cells in the G2/M phase (HCT116 cells; 0.4 μM): 28% | percentage of cells in the S phase (HCT116 cells; 0.4 μM): 38% | percentage of cells in the G0/G1 phase (G1) (HCT116 cells; 2 μM): 33% | percentage of cells in the G2/M phase (HCT116 cells; 2 μM): 25% | percentage of cells in the S phase (HCT116 cells; 2 μM): 42% | percentage of cells in the G0/G1 phase (G1) (HCT116 cells; 10 μM): 34% | percentage of cells in the G2/M phase (HCT116 cells; 10 μM): 27% | percentage of cells in the S phase (HCT116 cells; 10 μM): 39% | percentage of cells in the G0/G1 phase (G1) (HCT116 cells; 50 μM): 14% | percentage of cells in the G2/M phase (HCT116 cells; 50 μM): 52% | percentage of cells in the S phase (HCT116 cells; 50 μM): 33% | activity at 6.125 µM ([1]; Homo sapiens, HCT-116, 48 h, monastrol 6.125 μM, pentamidine 0 μM, read-out: % of control): 84% | activity at 12.5 µM ([1]; Homo sapiens, HCT-116, 48 h, monastrol 12.5 μM, pentamidine 0 μM, read-out: % of control): 62% | activity at 25 µM ([1]; Homo sapiens, HCT-116, 48 h, monastrol 25 μM, pentamidine 0 μM, read-out: % of control): 53% | activity at 50 µM ([1]; Homo sapiens, HCT-116, 48 h, monastrol 50 μM, pentamidine 0 μM, read-out: % of control): 17% | -fold inhibition of proliferation [1, 2]: 1 fold | OD550 nm background corrected [1, 2]: 0.68 | -fold inhibition of proliferation [1, 3]: 2 fold | OD550 nm background corrected [1, 3]: 0.51 | -fold inhibition of proliferation [1, 4]: 2 fold | OD550 nm background corrected [1, 4]: 0.43 | -fold inhibition of proliferation [1, 5]: 6 fold | OD550 nm background corrected [1, 5]: 0.14

CC(C)(C)c1ccc2c(c1)[C@H]1OCCC[C@H]1[C@H](c1ccsc1)N2 [Example I12]
percentage of cells in the G0/G1 phase (G1) (HCT116 cells; 0.0032 μM): 36% | percentage of cells in the G2/M phase (HCT116 cells; 0.0032 μM): 21% | percentage of cells in the S phase (HCT116 cells; 0.0032 μM): 44% | percentage of cells in the G0/G1 phase (G1) (HCT116 cells; 0.016 μM): 36% | percentage of cells in the G2/M phase (HCT116 cells; 0.016 μM): 21% | percentage of cells in the S phase (HCT116 cells; 0.016 μM): 43% | percentage of cells in the G0/G1 phase (G1) (HCT116 cells; 0.08 μM): 35% | percentage of cells in the G2/M phase (HCT116 cells; 0.08 μM): 23% | percentage of cells in the S phase (HCT116 cells; 0.08 μM): 42% | percentage of cells in the G0/G1 phase (G1) (HCT116 cells; 0.4 μM): 7% | percentage of cells in the G2/M phase (HCT116 cells; 0.4 μM): 86% | percentage of cells in the S phase (HCT116 cells; 0.4 μM): 7% | percentage of cells in the G0/G1 phase (G1) (HCT116 cells; 2 μM): 0% | percentage of cells in the G2/M phase (HCT116 cells; 2 μM): 85% | percentage of cells in the S phase (HCT116 cells; 2 μM): 15% | activity at 0.025 µM ([1]; Homo sapiens, HCT-116, 48 h, I12 0.025 μM, pentamidine 0 μM, read-out: % of control): 91% | activity at 0.05 µM ([1]; Homo sapiens, HCT-116, 48 h, I12 0.05 μM, pentamidine 0 μM, read-out: % of control): 98% | activity at 0.1 µM ([1]; Homo sapiens, HCT-116, 48 h, I12 0.1 μM, pentamidine 0 μM, read-out: % of control): 90% | activity at 0.2 µM ([1]; Homo sapiens, HCT-116, 48 h, I12 0.2 μM, pentamidine 0 μM, read-out: % of control): 90% | activity at 0.4 µM ([1]; Homo sapiens, HCT-116, 48 h, I12 0.4 μM, pentamidine 0 μM, read-out: % of control): 31% | -fold inhibition of proliferation ([1]; I12 0.025 μM, pentamidine 0 μM): 1 fold | OD550 nm background corrected ([1]; I12 0.025 μM, pentamidine 0 μM): 1.1 | -fold inhibition of proliferation ([1]; I12 0.05 μM, pentamidine 0 μM): 1 fold | OD550 nm background corrected ([1]; I12 0.05 μM, pentamidine 0 μM): 1.2 | -fold inhibition of proliferation ([1]; I12 0.1 μM, pentamidine 0 μM): 1 fold | OD550 nm background corrected ([1]; I12 0.1 μM, pentamidine 0 μM): 1.1 | -fold inhibition of proliferation ([1]; I12 0.2 μM, pentamidine 0 μM): 1 fold | OD550 nm background corrected ([1]; I12 0.2 μM, pentamidine 0 μM): 1.1 | -fold inhibition of proliferation ([1]; I12 0.4 μM, pentamidine 0 μM): 3 fold | OD550 nm background corrected ([1]; I12 0.4 μM, pentamidine 0 μM): 0.4

N=C(N)c1ccc(OCCCCCOc2ccc(C(=N)N)cc2)cc1.O=S(=O)(O)CCO.O=S(=O)(O)CCO [Pentamidine Isothionate]
percentage of cells in the G0/G1 phase (G1) (HCT116 cells; 0.016 μM): 36% | percentage of cells in the G2/M phase (HCT116 cells; 0.016 μM): 22% | percentage of cells in the S phase (HCT116 cells; 0.016 μM): 42% | percentage of cells in the G0/G1 phase (G1) (HCT116 cells; 0.08 μM): 35% | percentage of cells in the G2/M phase (HCT116 cells; 0.08 μM): 21% | percentage of cells in the S phase (HCT116 cells; 0.08 μM): 44% | percentage of cells in the G0/G1 phase (G1) (HCT116 cells; 0.4 μM): 33% | percentage of cells in the G2/M phase (HCT116 cells; 0.4 μM): 22% | percentage of cells in the S phase (HCT116 cells; 0.4 μM): 45% | percentage of cells in the G0/G1 phase (G1) (HCT116 cells; 2 μM): 32% | percentage of cells in the G2/M phase (HCT116 cells; 2 μM): 24% | percentage of cells in the S phase (HCT116 cells; 2 μM): 44% | percentage of cells in the G0/G1 phase (G1) (HCT116 cells; 10 μM): 32% | percentage of cells in the G2/M phase (HCT116 cells; 10 μM): 32% | percentage of cells in the S phase (HCT116 cells; 10 μM): 32%

N=C(N)c1ccc(OCCCCCOc2ccc(C(=N)N)cc2)cc1 [Pentamidine, pentamidine]
effect on the cell cycle (in words) (HCT116 cells): maintain cells in the G2/M cell cycle | activity at 4 µM ([1]; Homo sapiens, HCT-116, 48 h, pentamidine 4 μM alone, read-out: % of control): 85% | activity at 8 µM ([1]; Homo sapiens, HCT-116, 48 h, pentamidine 8 μM alone, read-out: % of control): 50% | activity at 16 µM ([1]; Homo sapiens, HCT-116, 48 h, pentamidine 16 μM alone, read-out: % of control): 30% | activity at 32 µM ([1]; Homo sapiens, HCT-116, 48 h, pentamidine 32 μM alone, read-out: % of control): 20% | % of control ([1]; pentamidine 2 μM alone): 86% and 124% | -fold inhibition of proliferation ([1]; pentamidine 2 μM alone): 1 fold | OD550 nm background corrected ([1]; pentamidine 2 μM alone): 1.0 and 1.01 | % of control ([1]; pentamidine 4 μM alone): 101% | -fold inhibition of proliferation ([1]; pentamidine 4 μM alone): 1 fold | OD550 nm background corrected ([1]; pentamidine 4 μM alone): 1.0 and 0.82 | % of control ([1]; pentamidine 8 μM alone): 55% | -fold inhibition of proliferation ([1]; pentamidine 8 μM alone): 2 fold | OD550 nm background corrected ([1]; pentamidine 8 μM alone): 0.6 and 0.45 | % of control ([1]; pentamidine 16 μM alone): 18% | -fold inhibition of proliferation ([1]; pentamidine 16 μM alone): 3 fold and 6 fold | -fold inhibition of proliferation ([1]; pentamidine 32 μM alone): 5 fold | OD550 nm background corrected ([1]; pentamidine 32 μM alone): 0.2
